Results reported in PubChem BioAssay (NCI).
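96-well plates; 48 h exposure; 5 concentrations. Endpoints by linear interpolation between flanking doses. Not reached: highest tested concentration assigned. GI50 is the concentration that inhibits growth by half. TGI: concentration producing complete growth inhibition.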

How the values were obtained:
Assay in all cases: NCI anticancer screen, dose series, 48 h
OVCAR-4 ovarian = system: OVCAR-4 ovarian
SK-MEL-2 melanoma = system: SK-MEL-2 melanoma
EKVX NSCLC = system: EKVX NSCLC
NCI-H23 lung = system: NCI-H23 lung
RXF 393 renal = system: RXF 393 renal
UO-31 renal = system: UO-31 renal
RPMI-8226 leukemia = system: RPMI-8226 leukemia
HT29 colon = system: HT29 colon
SK-MEL-5 melanoma = system: SK-MEL-5 melanoma
MCF7 breast = system: MCF7 breast

SMILES	TGI (OVCAR-4 ovarian) [µM]	TGI (SK-MEL-2 melanoma) [µM]	TGI (EKVX NSCLC) [µM]	TGI (NCI-H23 lung) [µM]	TGI (RXF 393 renal) [µM]	TGI (UO-31 renal) [µM]	TGI (RPMI-8226 leukemia) [µM]	TGI (HT29 colon) [µM]	TGI (SK-MEL-5 melanoma) [µM]	GI50 (MCF7 breast) [µM]	TGI (MCF7 breast) [µM]	GI50 (OVCAR-4 ovarian) [µM]	GI50 (SK-MEL-2 melanoma) [µM]	GI50 (EKVX NSCLC) [µM]	GI50 (NCI-H23 lung) [µM]	GI50 (UO-31 renal) [µM]	GI50 (RPMI-8226 leukemia) [µM]	GI50 (HT29 colon) [µM]	GI50 (SK-MEL-5 melanoma) [µM]	GI50 (RXF 393 renal) [µM]
CC1CC(=O)CC[C@@H]1OCc1ccccc1 (stereo partly drawn)	> 100	> 100	> 100	> 100	> 100	> 100	> 100	> 100	> 100	–	–	–	–	–	–	–	–	–	–	–
COC(=O)[C@@H](C)C[C@H](Cc1ccccc1)NC(=O)c1csc([C@@H](C[C@H](C(C)C)N(C)C(=O)[C@@H](NC(=O)CN(C)C)C2CC2)OC(C)=O)n1	> 16.5	0.149	> 16.5	> 16.5	–	> 16.5	> 7.96	–	0.434	0.00258	> 16.5	1.16	0.00701	0.208	0.0635	0.478	0.00576	0.013	0.0122	–
Cc1nc(=O)n2c(c1C(=O)Nc1ccc(Cl)cc1)NCCC2	> 100	> 100	> 100	> 100	> 100	–	> 100	> 100	–	–	–	–	–	–	–	–	–	–	–	–
CC(=O)OC1CC2C(C)(C)C(=O)C=C[C@]2(C)C2CCC3(C)C(=CCC3[C@H](CO)C[C@H](O)C(=O)C(C)(C)O)[C@]12C (stereo partly drawn)	> 100	51.3	38.5	–	31.3	39.3	64.2	28.1	42	–	–	–	–	–	–	–	–	–	–	–
COc1cccc(C2N3CCCCC3[C@@H]3c4[nH]c5ccccc5c4CCN23)c1OC (stereo partly drawn)	31.5	29.2	32	30.6	27.9	28.1	42.7	25.5	30.6	–	–	–	–	–	–	–	–	–	–	–
N#CC(N)(C(=O)C(=O)NCCCNC(=O)C(=O)C(N)(C#N)c1ccc(Cl)cc1)c1ccc(Cl)cc1 (stereo not drawn)	> 100	> 100	> 100	> 100	> 100	> 100	> 100	> 100	> 100	–	–	–	–	–	–	–	–	–	–	–
O=[P+](O)c1cc2c3ccccc3ccc2c2ccccc12	> 100	–	> 100	> 100	> 100	–	> 100	> 100	> 100	–	–	–	–	–	–	–	–	–	–	–
Nc1ccc(C(=O)N/C(=C\c2ccc3c(c2)OCO3)c2nc3ccc4c(c3[nH]2)C(=O)c2ccccc2C4=O)cc1	> 100	75.4	> 100	56.5	42.4	18.7	> 100	> 100	> 100	–	–	–	–	–	–	–	–	–	–	–
CC(C)C(NCc1c2ccccc2nc2ccccc12)C(=O)O (stereo not drawn)	42.8	> 100	> 100	> 100	> 100	–	> 100	> 100	> 100	–	–	–	–	–	–	–	–	–	–	–
Cc1ccc(/C=C2\CN(C(=O)CCN3CCC(=NO)CC3)C/C(=C\c3ccc(C)cc3)C2=O)cc1	–	7.02	8.07	–	3.05	2.73	0.885	–	3.16	–	–	–	2.75	2.72	–	1.42	0.286	–	1.73	1.64
COc1cc2ccc(C(=O)O)cc2cc1OC	> 100	> 100	> 100	> 100	> 100	> 100	> 100	> 100	> 100	–	–	–	–	–	–	–	–	–	–	–
NC(=O)COc1ccc(Br)cc1Br	–	> 100	> 100	> 100	–	> 100	> 100	> 100	> 100	–	–	–	–	–	–	–	–	–	–	–
Clc1ccc2c(NCCNc3nc(Cl)nc4ccccc34)ccnc2c1	1.22	3.52	3.56	3.7	3.37	2.94	0.769	0.377	3.22	–	–	0.323	1.87	1.79	1.83	1.5	0.279	0.193	1.76	1.73
O=C(/C=C/c1ccc(OCCCOc2ccc(/C=C/C(=O)c3ccc(Cl)cc3)cc2)cc1)c1ccc(Cl)cc1	> 100	> 100	> 100	> 100	> 100	–	> 100	> 100	> 100	–	–	–	–	–	–	–	–	–	–	–
CC(C)=CCCC1(C)C=Cc2c(ccc3c2[nH]c2cc(O)c(C)cc23)O1 (stereo not drawn)	> 25	> 25	–	–	10.1	> 2.5	18.9	10.5	9.31	–	–	–	6.47	–	–	–	–	4.9	4.85	5.27
CCc1cc2c(c3[nH]ccc13)[C@@H](C)C[C@H]2C	–	–	44.6	37.8	28.7	32.3	46	43.8	31.9	–	–	–	–	–	–	–	–	–	–	–
COC(=O)C1=C(c2cc(OC)c(OC)c(OC)c2)OC(c2cc(OC)c(OC)c(OC)c2)C1 (stereo not drawn)	70.6	–	–	48.9	75.2	40	96.6	58.5	32.6	–	–	–	–	–	–	–	–	–	–	–
CC(C)N(C(=O)C12C3C4C5C3C1(C(=O)N(C(C)C)C(C)C)C5C42)C(C)C (stereo not drawn)	> 100	> 100	> 100	> 100	> 100	> 100	> 64.4	> 100	> 100	–	–	–	–	–	–	–	–	–	–	–
CC(C)S(=O)(=O)ON1C(=O)c2ccc([N+](=O)[O-])cc2C1=O	> 100	> 100	> 100	> 100	> 100	> 100	–	> 100	> 100	–	–	–	–	–	–	–	–	–	–	–
CC(=O)[O-].CC(=O)[O-].CC(=O)[O-].CC(=O)[O-].CO.CO.CO.[Rh+2].[Rh+2].c1ccc(-c2ccccn2)nc1	> 100	–	> 100	> 100	> 100	> 100	> 100	> 100	> 100	–	–	> 100	–	> 100	> 100	> 100	> 100	> 100	> 100	> 100
CCOc1c(Cc2ccccc2)c(=O)n2c3ccccc3n3c(=O)n(C)c(=O)c1c23	> 100	> 100	> 100	> 100	> 100	> 100	> 100	> 100	> 100	–	–	–	–	–	–	–	–	–	–	–
O=C1/C(=C/c2ccccc2)CN(C(=O)Oc2ccccc2)C/C1=C\c1ccccc1	> 100	65.5	> 100	> 100	31.4	88.9	0.819	> 100	> 100	–	–	–	–	–	–	–	–	–	–	–
